According to publication PMC9078972 (RSC Advances, 2018):
In brackets after ≈: the same amount, converted by molar mass.

System: Mycobacterium tuberculosis H37Ra
Test: microbe, parasite or virus in culture
Assay type: cell-based

**Q.** How did the MIC turn out when `CCCCN1CCN(c2nc(=O)c3cc(C(F)(F)F)cc([N+](=O)[O-])c3s2)CC1=O` [Compound 1d, 2-(4-Butyl-3-oxopiperazin-1-yl)-8-nitro-6-(trifluoromethyl)-4H-benzo[e][1,3]-thiazin-4-one] was run?
**A.** The MIC was 0.034 µM (≈ 0.0146 µg/mL).
